Here are results for twelve molecules from article PMC5853558, “De novo identification of lipid II binding lipopeptides with antibacterial activity against vancomycin-resistant bacteria” (Chemical Science, 2017).

In assay [1] the test system is M. luteus (NCTC2665). Kind of assay: microbe, parasite or virus in culture. Type of assay: cell-based, Micrococcus luteus. The note with it: for MIC of Ala scan of P8-D against M. luteus: Supplemental table S8, non-lipidated P8 variants, highest tested 512 µg/ml; for MIC against M. luteus: Table 1, non-lipidated bicyclic peptides, broth microdilution in TSB, 16 h, read visually, n.a. = no activity, highest tested concentration 512 μg mL^–1. The method, then:
(§1) Section 4 Biological and biochemical experiments
(§2) 4.1 Minimum inhibitory concentration assay
(§3) MIC values were determined by using the broth microdilution method. Peptides were dissolved first in DMSO and diluted with broth so that the final peptide concentration was 1024 µg/ml and the DMSO concentration was 4%. Peptide serial dilutions were made in TSB in a polypropylene 96-wells plate using 50 µl volumes. An overnight culture of the organism of interest was diluted to and OD600 of 0.01 and grown until they reach 0.5. The culture was then diluted to 1 x 10^6 CFU/ml and 50 µl of this suspension was added to each well. The highest concentrations were then 512 µg/ml peptide and 2% DMSO. The plates were incubated at the preferred growth temperature of the organism that was used and 250 rpm. […] When […]
(§4) determining the MICs of the lipidated peptides, the lipopeptides were first dissolved in DMSO and diluted with TSB so that the peptide concentration was 128 µg/ml and the DMSO concentration was 4%. After inoculation the highest peptide concentration evaluated was 64 µg/ml and the DMSO concentration was 2%. A DMSO control was tested for each strain to ensure the DMSO did not affect the growth of the particular strain. […]
For orientation: In broth dilution the organism is exposed to a series of concentrations in liquid medium.

In assay [2] the test system is E. faecium (VRE155). Put plainly: microbe, parasite or virus in culture. In kind it is cell-based, Enterococcus faecium. The note with it: Supplemental table S7, P8 with varying lipids; broth microdilution. The procedure:
as §1, §2, §3, §4

Converted amounts (≈) assume the structure as drawn. *1 amine or outer side, *2 acyl side, *3 side chain or, on linkers, in order; H or OH if unused. Where a SMILES comes first, the peptide text is derived from it. Bridges are numbered along the chain shown (N, C = ends). [ ]: non-standard residue; d: D form. The star is where a group is joined. TBMB = c1c(C[*:1])cc(C[*:3])cc1C[*:2]; NHDecyl = CCCCCCCCCCN*; NHOctyl = CCCCCCCCN* Some results are limits rather than exact numbers.

As to `CC(C)C[C@H]1NC(=O)[C@@H](CO)NC(=O)[C@@H](CCC(N)=O)NC(=O)[C@@H](CC(C)C)NC(=O)[C@@H](CC(C)C)NC(=O)[C@H](NC(=O)[C@@H](C)N)CSCc2cc3cc(c2)CSC[C@@H](NC(=O)[C@@H](C)NC1=O)C(=O)N1CCC[C@@H]1C(=O)N[C@H](Cc1ccc(O)cc1)C(=O)N[C@H](CO)C(=O)N[C@H]([C@H](C)O)C(=O)N[C@H](Cc1c[nH]cn1)C(=O)N[C@H](CCCNC(=N)N)C(=O)N[C@@H](C(=O)NCC(N)=O)CSC3` [Peptide P8-D-L8A] (H-[dA][dC][dL][dL][dQ][dS][dL][dA][dC][dP][dY][dS][dT][dH][dR][dC]G-NH2; linker 2-9-16 via TBMB; N-terminus assumed), the “MIC of Ala scan of P8-D against M. luteus” value (from here on “MIC of Ala scan of P8-D”) in assay [1] (broth microdilution) lay in the range of 128 to 256 µg/mL.

Consider `CCCCCCCCNC(=O)CNC(=O)[C@H]1CSCc2cc3cc(c2)CSC[C@@H](NC(=O)[C@@H](CC(C)C)NC(=O)[C@@H](CC(C)C)NC(=O)[C@@H](CO)NC(=O)[C@@H](CCC(N)=O)NC(=O)[C@@H](CC(C)C)NC(=O)[C@@H](CC(C)C)NC(=O)[C@H](NC(=O)[C@@H](C)N)CSC3)C(=O)N2CCC[C@@H]2C(=O)N[C@H](Cc2ccc(O)cc2)C(=O)N[C@H](CO)C(=O)N[C@H]([C@H](C)O)C(=O)N[C@H](Cc2c[nH]cn2)C(=O)N[C@H](CCCNC(=N)N)C(=O)N1` [Peptide P8-D-C8] (H-[dA][dC][dL][dL][dQ][dS][dL][dL][dC][dP][dY][dS][dT][dH][dR][dC]G-NHOctyl; linker 2-9-16 via TBMB; N-terminus assumed), for which the “MIC VRE E155” value in assay [2] lay in the range of 8 to 16 µg/mL. For the same molecule, the “MIC M. luteus” value in assay [1] (Supplemental table S7, P8 with varying lipids, broth microdilution) came to 16 µg/mL (≈ 7.65 µM). In the case of `CC(C)C[C@H]1NC(=O)[C@H](NC(=O)[C@@H](C)N)CSCc2cc3cc(c2)CSC[C@@H](NC(=O)[C@@H](CC(C)C)NC(=O)[C@@H](CC(C)C)NC(=O)[C@@H](CO)NC(=O)[C@@H](CCC(N)=O)NC(=O)[C@@H](CC(C)C)NC1=O)C(=O)N1CCC[C@@H]1C(=O)N[C@H](C)C(=O)N[C@H](CO)C(=O)N[C@H]([C@H](C)O)C(=O)N[C@H](Cc1c[nH]cn1)C(=O)N[C@H](CCCNC(=N)N)C(=O)N[C@@H](C(=O)NCC(N)=O)CSC3` [Peptide P8-D-Y11A] (H-[dA][dC][dL][dL][dQ][dS][dL][dL][dC][dP][dA][dS][dT][dH][dR][dC]G-NH2; linker 2-9-16 via TBMB; N-terminus assumed), in assay [1] (broth microdilution), the “MIC of Ala scan of P8-D” value is 512 µg/mL. Still for that read-out and setting: the result for `CC(C)C[C@H]1NC(=O)[C@@H](C)NC(=O)[C@@H](CCC(N)=O)NC(=O)[C@@H](CC(C)C)NC(=O)[C@@H](CC(C)C)NC(=O)[C@H](NC(=O)[C@@H](C)N)CSCc2cc3cc(c2)CSC[C@@H](NC(=O)[C@@H](CC(C)C)NC1=O)C(=O)N1CCC[C@@H]1C(=O)N[C@H](Cc1ccc(O)cc1)C(=O)N[C@H](CO)C(=O)N[C@H]([C@H](C)O)C(=O)N[C@H](Cc1c[nH]cn1)C(=O)N[C@H](CCCNC(=N)N)C(=O)N[C@@H](C(=O)NCC(N)=O)CSC3` [Peptide P8-D-S6A] (H-[dA][dC][dL][dL][dQ][dA][dL][dL][dC][dP][dY][dS][dT][dH][dR][dC]G-NH2; linker 2-9-16 via TBMB; N-terminus assumed) reads 64 to 128 µg/mL. Take `CCCCCCCCCCNC(=O)CNC(=O)[C@@H]1CSCc2cc3cc(c2)CSC[C@H](NC(=O)[C@H](Cc2ccc(O)cc2)NC(=O)[C@H](Cc2c[nH]c4ccccc24)NC(=O)[C@H](CC(=O)O)NC(=O)[C@H](C(C)C)NC(=O)[C@@H]2CCCN2C(=O)[C@H](Cc2ccc(O)cc2)NC(=O)[C@@H](NC(=O)[C@H](C)N)CSC3)C(=O)N[C@@H](CC(C)C)C(=O)N[C@@H](Cc2ccccc2)C(=O)N[C@@H](CCC(N)=O)C(=O)N[C@@H]([C@@H](C)O)C(=O)N[C@@H](C(C)C)C(=O)N[C@@H](CC(=O)O)C(=O)N1` [Peptide P6-C10] (H-ACYPVDWYCLFQTVDCG-NHDecyl; linker 2-9-16 via TBMB; N-terminus assumed): the “MIC M. luteus” value in assay [1] (Supplemental table S6, lipidated phage display hits, n.a. = not active, highest tested conc 64 µg/ml) is 2 µg/mL (≈ 0.894 µM). As for `CC(C)C[C@H]1NC(=O)[C@H](NC(=O)[C@@H](C)N)CSCc2cc3cc(c2)CSC[C@@H](NC(=O)[C@@H](CC(C)C)NC(=O)[C@@H](CC(C)C)NC(=O)[C@@H](CO)NC(=O)[C@@H](CCC(N)=O)NC(=O)[C@@H](CC(C)C)NC1=O)C(=O)N1CCC[C@@H]1C(=O)N[C@H](Cc1ccc(O)cc1)C(=O)N[C@H](CO)C(=O)N[C@H]([C@H](C)O)C(=O)N[C@H](Cc1c[nH]cn1)C(=O)N[C@H](CCCNC(=N)N)C(=O)N[C@@H](C(=O)NCC(N)=O)CSC3` [Peptide P8] (H-[dA][dC][dL][dL][dQ][dS][dL][dL][dC][dP][dY][dS][dT][dH][dR][dC]G-NH2; linker 2-9-16 via TBMB; N-terminus assumed), the “MIC of Ala scan of P8-D” value in assay [1] (broth microdilution) came to 128 µg/mL. For the same molecule, the “MIC against M. luteus” value in assay [1] is recorded as 64–128 μg mL^–1. With `CC(C)C[C@H]1NC(=O)[C@H](NC(=O)[C@@H](C)N)CSCc2cc3cc(c2)CSC[C@@H](NC(=O)[C@@H](CC(C)C)NC(=O)[C@@H](CC(C)C)NC(=O)[C@@H](CO)NC(=O)[C@@H](CCC(N)=O)NC(=O)[C@@H](CC(C)C)NC1=O)C(=O)N1CCC[C@@H]1C(=O)N[C@H](Cc1ccc(O)cc1)C(=O)N[C@H](CO)C(=O)N[C@H]([C@H](C)O)C(=O)N[C@H](C)C(=O)N[C@H](CCCNC(=N)N)C(=O)N[C@@H](C(=O)NCC(N)=O)CSC3` [Peptide P8-D-H14A] (H-[dA][dC][dL][dL][dQ][dS][dL][dL][dC][dP][dY][dS][dT][dA][dR][dC]G-NH2; linker 2-9-16 via TBMB; N-terminus assumed), in assay [1] (broth microdilution), the “MIC of Ala scan of P8-D” value lay in the range of 64 to 128 µg/mL. With `CC(C)C[C@H]1NC(=O)[C@H](NC(=O)[C@@H](C)N)CSCc2cc3cc(c2)CSC[C@@H](NC(=O)[C@@H](CC(C)C)NC(=O)[C@@H](CC(C)C)NC(=O)[C@@H](CO)NC(=O)[C@@H](CCC(N)=O)NC(=O)[C@@H](CC(C)C)NC1=O)C(=O)N1CCC[C@@H]1C(=O)N[C@H](Cc1ccc(O)cc1)C(=O)N[C@H](C)C(=O)N[C@H]([C@H](C)O)C(=O)N[C@H](Cc1c[nH]cn1)C(=O)N[C@H](CCCNC(=N)N)C(=O)N[C@@H](C(=O)NCC(N)=O)CSC3` [Peptide P8-D-S12A] (H-[dA][dC][dL][dL][dQ][dS][dL][dL][dC][dP][dY][dA][dT][dH][dR][dC]G-NH2; linker 2-9-16 via TBMB; N-terminus assumed), the “MIC of Ala scan of P8-D” value in assay [1] (broth microdilution) came out at 512 µg/mL.

Take `CC[C@H](C)[C@@H]1NC(=O)[C@@H]2CSCc3cc(cc(c3)CSC[C@@H](C(=O)NCC(N)=O)NC(=O)[C@H](CCCNC(=N)N)NC(=O)[C@H]([C@@H](C)CC)NC(=O)[C@H](CC(N)=O)NC(=O)[C@H](C)NC(=O)[C@H](CO)NC1=O)CSC[C@H](NC(=O)[C@H](C)N)C(=O)N[C@@H](CCCNC(=N)N)C(=O)N1CCC[C@H]1C(=O)N[C@@H](CCC(N)=O)C(=O)N[C@@H](CCCCN)C(=O)N[C@@H](Cc1ccccc1)C(=O)N[C@@H](CC(N)=O)C(=O)N2` [Peptide P4] (H-ACRPQKFNCISANIRCG-NH2; linker 2-9-16 via TBMB; N-terminus assumed): the “MIC against M. luteus” value in assay [1] is given as 64 μg mL^–1. As for `CC(C)C[C@H]1NC(=O)[C@H](NC(=O)[C@@H](C)N)CSCc2cc3cc(c2)CSC[C@@H](NC(=O)[C@@H](CC(C)C)NC(=O)[C@@H](CC(C)C)NC(=O)[C@@H](CO)NC(=O)[C@@H](CCC(N)=O)NC(=O)[C@@H](C)NC1=O)C(=O)N1CCC[C@@H]1C(=O)N[C@H](Cc1ccc(O)cc1)C(=O)N[C@H](CO)C(=O)N[C@H]([C@H](C)O)C(=O)N[C@H](Cc1c[nH]cn1)C(=O)N[C@H](CCCNC(=N)N)C(=O)N[C@@H](C(=O)NCC(N)=O)CSC3` [Peptide P8-D-L4A] (H-[dA][dC][dL][dA][dQ][dS][dL][dL][dC][dP][dY][dS][dT][dH][dR][dC]G-NH2; linker 2-9-16 via TBMB; N-terminus assumed), the “MIC of Ala scan of P8-D” value in assay [1] (broth microdilution) was more than 512 µg/mL. On the same count and under the same terms, to `CC(C)C[C@H]1NC(=O)[C@H](NC(=O)[C@@H](C)N)CSCc2cc3cc(c2)CSC[C@@H](NC(=O)[C@@H](CC(C)C)NC(=O)[C@@H](CC(C)C)NC(=O)[C@@H](CO)NC(=O)[C@@H](CCC(N)=O)NC(=O)[C@@H](CC(C)C)NC1=O)C(=O)N1CCC[C@@H]1C(=O)N[C@H](Cc1ccc(O)cc1)C(=O)N[C@H](CO)C(=O)N[C@H](C)C(=O)N[C@H](Cc1c[nH]cn1)C(=O)N[C@H](CCCNC(=N)N)C(=O)N[C@@H](C(=O)NCC(N)=O)CSC3` [Peptide P8-D-T13A] (H-[dA][dC][dL][dL][dQ][dS][dL][dL][dC][dP][dY][dS][dA][dH][dR][dC]G-NH2; linker 2-9-16 via TBMB; N-terminus assumed) belongs 512 µg/mL; to `CC(C)C[C@H]1NC(=O)[C@@H](C)NC(=O)[C@H](NC(=O)[C@@H](C)N)CSCc2cc3cc(c2)CSC[C@@H](NC(=O)[C@@H](CC(C)C)NC(=O)[C@@H](CC(C)C)NC(=O)[C@@H](CO)NC(=O)[C@@H](CCC(N)=O)NC1=O)C(=O)N1CCC[C@@H]1C(=O)N[C@H](Cc1ccc(O)cc1)C(=O)N[C@H](CO)C(=O)N[C@H]([C@H](C)O)C(=O)N[C@H](Cc1c[nH]cn1)C(=O)N[C@H](CCCNC(=N)N)C(=O)N[C@@H](C(=O)NCC(N)=O)CSC3` [Peptide P8-D-L3A] (H-[dA][dC][dA][dL][dQ][dS][dL][dL][dC][dP][dY][dS][dT][dH][dR][dC]G-NH2; linker 2-9-16 via TBMB; N-terminus assumed), more than 512 µg/mL.
